Experimental data reported in patent US6492328B2, “Novispirins: antimicrobial peptides” (priority 2000, dated 2002).
Values after ≈ are worked out from the molar mass of the structure shown. Where two headings read alike, the source gives them in different places. Where no end group is shown, it is not given here.

Tests used:
E. coli ML 35P [1] = tested on: E. coli ML 35P
From the text: (§1) Effect of serum. […] Because serum can be present in an inflammatory focus or exudate, the ability to function in the presence of serum would be a desirable property.
(§2) In these experiments, the underlay gel contained 60% RPMI-1640, ±2.5 or 20% normal human serum (NHS). The remainder of the solution was phosphate-buffered saline

P. aeruginosa MR 3007 = details: underlay gel 60% RPMI-1640
From the text: as §1, §2

E. coli ML 35P [2] = assay type: cell-based, Escherichia coli; details: mean ± SEM, n = 3
Description: Antimicrobial activity. Several different methods were used to examine the antimicrobial properties of novispirins, including: a) two-stage radial diffusion assays; b) colony counting assays; and c) standard microbroth dilution assays.
Antimicrobial activity was tested in media with low, normal or high salinity. In radial diffusion assays, this was accomplished by using a low salt “basic medium” containing 0.3 mg of trypticase soy broth powder/ml of 10 mM sodium phosphate buffer, pH 7.4. Media with “normal” or “high” salinity were prepared by supplementing the basic medium with 100 mM NaCl to obtain media with normal salinity, or with 175-200 mM NaCl to obtain high salt media. Retention of activity against P. aeruginosa in high salt media is important because airway fluids from cystic fibrosis patients are reported to show hypersalinity, and other sites—including skin surfaces surfaces and the urinary bladder—may have locally high salt concentrations.
The relative activities of ovispirin and the novispirins against two organisms, E. coli and a multi-resistant strain of P. aeruginosa, are shown in FIG. 1. The MICs were obtained by radial diffusion assays performed under low, normal, and high salt conditions (which are denoted along the X-axis as 0, 100 and 200 mM NaCl, respectively).
Table 1 compares the activity of novispirins against these Gram-negative bacteria with its activity against Listeria monocytogenes, Staphylococcus aureus and C. albicans. […] Note that novispirins show activity against these Gram-positive bacteria when tested in physiological (100 mM NaCl) salt concentrations, and also that Novispirin G10 is quite active against C. albicans. Although neither ovispirin nor novispirins retained activity against C. albicans or the Gram positives under very high salt conditions (200 mM NaCl), they remained active against the Gram-negatives under these conditions. Consequently, even if the airways' NaCl concentrations are exceptionally high in CF patients, this factor will not impair the ability of ovispirin or novispirins to kill P. aeruginosa.

S. maltophilia 18CP = assay: Novispirins vs S. maltophilia (Table 5); assay type: cell-based, Stenotrophomonas maltophilia; design: unit not given here; details: strain 18CP
Description: (§3) Microorganisms used in this study included 13 different Pseudomonas aeruginosa strains. The AML-654 and LZ-1 strains are recent clinical isolates from the UCLA Clinical Microbiology laboratory. Nine strains (5 mucoid, 4 nonmucoid) were recent CF isolates provided by Dr. Lisa Saiman. All of the P. aeruginosa strains except PAO-1 strain were resistant to multiple conventional antibiotics, and all 9 CF isolates were resistant to 250 μg/ml of tobramycin. We have also tested 5 strains each of Stenotrophomonas maltophilia and Burkholderia cepacia from CF patients (also provided by Dr. Lisa Saiman), two strains of Escherichia coli (ML-35p and DH-5a), and single strains of Staphylococcus aureus[MRSA (methicillin-resistant S. aureus)] and C. albicans.

S. maltophilia 36CN = assay: Novispirins vs S. maltophilia (Table 5); assay type: cell-based, Stenotrophomonas maltophilia; design: unit not given here; details: strain 36CN
Description: as §3

S. maltophilia 42CK = assay: Novispirins vs S. maltophilia (Table 5); assay type: cell-based, Stenotrophomonas maltophilia; design: unit not given here; details: strain 42CK
Description: as §3

S. maltophilia 47CG = assay: Novispirins vs S. maltophilia (Table 5); assay type: cell-based, Stenotrophomonas maltophilia; design: unit not given here; details: strain 47CG
Description: as §3

S. maltophilia 51Cl = assay: Novispirins vs S. maltophilia (Table 5); assay type: cell-based, Stenotrophomonas maltophilia; design: unit not given here; details: strain 51Cl
Description: as §3

E. coli = assay: Two stage radial diffusion assay with 10 mM HEPES, G10 variants (Table 8); assay type: cell-based; details: mean ± SEM, n = 3, in µg/mL
From the text: (§4) Amidation (—NH2) of the carboxy terminus in some of the novispirin G10 variants was designed to increase overall positive charge. The sequences of these peptides and their net charge is shown below in Table 7. The fractional (and pH dependent) charge on histidine12 was ignored in this calculation.
(§5) In Table 8, MIC signifies minimal inhibitory concentration, as determined by two stage radial diffusion assays. […] Shaded boxes show results that represent a significant improvement of activity (p<0.01 by t-test), relative to novispirin G10. […] None of the above G10 novispirin derivatives caused any hemolysis of human red blood cells, even when tested at 80 μg/ml. It is likely that other cationic amino acids (e.g., lysine, ornithine, etc) could also be used in position 12 to achieve better activity in the presence of calcium and magnesium ions.

K. pneumoniae = assay: as above; assay type: cell-based; details: mean ± SEM, n = 3, in µg/mL
From the text: as §4, §5

P. aeruginosa = assay: as above; assay type: cell-based; details: mean ± SEM, n = 3, in µg/mL
From the text: as §4, §5

S. aureus = assay: as above; assay type: cell-based; details: mean ± SEM, n = 3, in µg/mL
From the text: as §4, §5

human red blood cells = assay type: cell-based
Description: Hemolytic Activity: This was tested by incubating various concentrations of peptide with a suspension (2.8% v/v) of washed human, murine, sheep or bovine red cells in PBS. After 30 min at 37C, the tubes were centrifuged and the percentage of total hemoglobin released to the supernatant was measured.
Similar results were obtained with murine red blood cells. In contrast, none of these peptides were appreciably hemolytic towards sheep or bovine red blood cells.

[3] = tested on: MRC-5 human lung fibroblasts; assay type: cell-based
From the text: FIG. 5 compares the cytotoxicity of these peptides for MRC-5 human lung fibroblasts.

[4] = Acute toxicity studies in mice, intravenous; assay type: in vivo
Description: In vivo toxicity. Acute toxicity studies were performed in mice. 3/3 mice survived an intravenous dose of 10 mg novispirin G10/kg body weight, and 1/3 survived a dose of 20 mg/kg.

C. trachomatis serovar E = assay: McCoy cell shell vial assay, inclusion-forming units; assay type: cell-based, Chlamydia trachomatis; details: 100 μg/ml, pre-incubation assays
Description: (§6) C. trachomatis serovar L2 causes invasive LGV, whereas serovars D and E represent typical genital strains. The effect of G-10 on Chlamydia trachomatis serovars (L2, D and E) was determined using standard and modified McCoy cell shell vial assays and varying concentrations of peptide. In the standard assay, the Chlamydia/peptide mixture was pre-incubated for 2 hr., then removed from the host cell monolayer before the 48-hr. incubation. In the modified assay, the pre-incubation mixture was left on the monolayer for the 48 hr. incubation. In a third assay, G-10 and Chlamydia were mixed and infected to cell monolayers without pre-incubation, and examined after 48 hr. Inclusion-forming units (IFUs) were scored to measure the peptide's inhibitory effect.

C. trachomatis serovar D = assay: as above; assay type: cell-based, Chlamydia trachomatis; design: dose or concentration left out as unconfirmed
Description: as §6

[5] = tested on: C. trachomatis serovar L2; assay: as above; assay type: cell-based, Chlamydia trachomatis; design: dose or concentration left out as unconfirmed
Description: as §6

[6] = Very high salinity (+200 mM NaCl)

## CC[C@H](C)[C@H](NC(=O)[C@H](CCCCN)NC(=O)[C@H](CCC(=O)O)NC(=O)[C@H](CCCCN)NC(=O)[C@H](CO)NC(=O)[C@H](CCCCN)NC(=O)[C@H](CCCNC(=N)N)NC(=O)[C@H](Cc1ccccc1)NC(=O)[C@H](Cc1ccccc1)NC(=O)[C@H](CC(=O)O)NC(=O)CNC(=O)[C@H](CC(C)C)NC(=O)[C@@H](N)CC(C)C)C(=O)NCC(=O)N[C@@H](CCCCN)C(=O)N[C@@H](CCC(=O)O)C(=O)N[C@@H](Cc1ccccc1)C(=O)N[C@@H](CCCCN)C(=O)N[C@@H](CCCNC(=N)N)C(=O)N[C@H](C(=O)N[C@H](C(=O)N[C@@H](CCC(N)=O)C(=O)N[C@@H](CCCNC(=N)N)C(=O)N[C@H](C(=O)N[C@@H](CCCCN)C(=O)N[C@@H](CC(=O)O)C(=O)N[C@@H](Cc1ccccc1)C(=O)N[C@@H](CC(C)C)C(=O)N[C@@H](CCCNC(=N)N)C(=O)N[C@@H](CC(N)=O)C(=O)N[C@@H](CC(C)C)C(=O)N[C@H](C(=O)N1CCC[C@H]1C(=O)N[C@@H](CCCNC(=N)N)C(=O)N[C@H](C(=O)N[C@@H](CCC(=O)O)C(=O)N[C@@H](CO)C(=O)O)[C@@H](C)O)C(C)C)[C@@H](C)CC)C(C)C)[C@@H](C)CC [LL-37, reference compound]
E. coli ML 35P [1]; 0% NHS, underlay gel 60% RPMI-1640
  MIC: 5.8 µg/mL (≈ 1.29 µM)
E. coli ML 35P [1]; 2.5% NHS, underlay gel 60% RPMI-1640
  MIC: 21.0 µg/mL (≈ 4.67 µM)
P. aeruginosa MR 3007; 0% NHS
  MIC: 12.7 µg/mL (≈ 2.83 µM)
P. aeruginosa MR 3007; 2.5% NHS
  MIC: 23.7 µg/mL (≈ 5.27 µM)
P. aeruginosa MR 3007; 20% NHS
  MIC: 141 µg/mL (≈ 31.4 µM)

## KNLRRIIRKGIHIIKKYG-OH [G10 Novispirin, K N L R R I I R K G I H I I K K Y G]
E. coli ML 35P [2]; Low Salt (+0 mM NaCl)
  MIC: 0.1 ± 0.0 µg/mL
E. coli ML 35P [2]; Normal salinity (+100 mM NaCl)
  MIC: 0.1 ± 0.0 µg/mL
E. coli ML 35P [2]; [6]
  MIC: 1.8 ± 0.8 µg/mL
S. maltophilia 18CP; +100 mM NaCl
  activity vs S. maltophilia: 0.70
S. maltophilia 18CP; +175 mM NaCl
  activity vs S. maltophilia: 1.30
S. maltophilia 18CP; LOW SALT CONDITIONS
  activity vs S. maltophilia: 0.40
S. maltophilia 36CN; +100 mM NaCl
  activity vs S. maltophilia: 0.29
S. maltophilia 36CN; +175 mM NaCl
  activity vs S. maltophilia: 0.36
S. maltophilia 36CN; LOW SALT CONDITIONS
  activity vs S. maltophilia: 0.15
S. maltophilia 42CK; +100 mM NaCl
  activity vs S. maltophilia: 0.67
S. maltophilia 42CK; +175 mM NaCl
  activity vs S. maltophilia: 10.0
S. maltophilia 42CK; LOW SALT CONDITIONS
  activity vs S. maltophilia: 0.43
S. maltophilia 47CG; +100 mM NaCl
  activity vs S. maltophilia: 0.68
S. maltophilia 47CG; +175 mM NaCl
  activity vs S. maltophilia: 0.63
S. maltophilia 47CG; LOW SALT CONDITIONS
  activity vs S. maltophilia: 0.08
S. maltophilia 51Cl; +100 mM NaCl
  activity vs S. maltophilia: 3.57
S. maltophilia 51Cl; +175 mM NaCl
  activity vs S. maltophilia: 8.18
S. maltophilia 51Cl; LOW SALT CONDITIONS
  activity vs S. maltophilia: 0.45
E. coli; +1 mM Ca
  MIC: 21.2 ± 0.36
E. coli; +1 mM Mg
  MIC: 20.3 ± 0.1
E. coli; No Ca/Mg
  MIC: 0.09 ± 0.02
K. pneumoniae; +1 mM Ca
  MIC: >250
K. pneumoniae; +1 mM Mg
  MIC: >250
K. pneumoniae; No Ca/Mg
  MIC: 0.17 ± 0.03
P. aeruginosa; +1 mM Ca
  MIC: >250
P. aeruginosa; +1 mM Mg
  MIC: >250
P. aeruginosa; No Ca/Mg
  MIC: 0.17 ± 0.04
S. aureus; +1 mM Ca
  MIC: 99.0 ± 5.7
S. aureus; +1 mM Mg
  MIC: >79
S. aureus; No Ca/Mg
  MIC: 22.7 ± 2.1
Human red blood cells
  hemolytic activity for human red blood cells: nonhemolytic
[3]
  cytotoxicity for MRC-5 human lung fibroblasts: virtually devoid of cytotoxicity
[4]; 10 mg/kg dose, if blood volume of a mouse is 5% of its mass
  peak level: approximately 200 micrograms/ml
[4]; intravenous dose of 10 mg/kg body weight
  mice survived: 3/3
[4]; intravenous dose of 20 mg/kg
  mice survived: 1/3
C. trachomatis serovar E
  inhibition of C. trachomatis serovar E: completely inhibited
C. trachomatis serovar D
  serovar D IFUs reduced: 99.4-100%
[5]
  serovar L2 IFUs reduced: 92.7-99.1%

## KNLRRIIRKTIHIIKKYG [T10 Novispirin, K N L R R I I R K T I H I I K K Y G]
E. coli ML 35P [2]; Low Salt (+0 mM NaCl)
  MIC: 0.5 ± 0.2 µg/mL
E. coli ML 35P [2]; Normal salinity (+100 mM NaCl)
  MIC: 0.3 ± 0.2 µg/mL
E. coli ML 35P [2]; [6]
  MIC: 2.7 ± 1.1 µg/mL
[3]
  cytotoxicity for MRC-5 human lung fibroblasts: virtually devoid of cytotoxicity

## KNLRRIIRKIIHIIKKYG [Ovispirin, K N L R R I I R K I I H I I K K Y G]
E. coli ML 35P [2]; Low Salt (+0 mM NaCl)
  MIC: 0.7 ± 0.0 µg/mL
E. coli ML 35P [2]; Normal salinity (+100 mM NaCl)
  MIC: 0.7 ± 0.1 µg/mL
E. coli ML 35P [2]; [6]
  MIC: 1.5 ± 0.6 µg/mL
E. coli ML 35P [1]; ML 35P
  MIC: 1.7 µg/mL
Human red blood cells
  hemolytic activity for human red blood cells: about as hemolytic for human red blood cells as protegrin PG-1
